Results taken from ChEMBL document CHEMBL3885861, “Open TG-GATES”.

Species: Rattus norvegicus
Assay: Open TG-GATES - Regimen: Single
Assay type: toxicity, organism-based, Sprague-Dawley
Design: regimen Single, gender Male, age 6 weeks
Details: in vivo, iv, route intravenous injection; for Bas / Eos / Fbg / Ht / Lym / MCHC / MCV / Mono / PT / Plat / RBC / Ret / WBC / APTT / Hb / MCH / Neu: tissue Blood; for KIDNEY_L / KIDNEY_R / KIDNEY_TOTAL: tissue Kidney; for LIVER: tissue Liver
[1] = 0 mg/kg, 3 h, dose level Control
[2] = 0 mg/kg, 3 h, tissue Plasma, dose level Control
[3] = 0 mg/kg, 6 h, dose level Control
[4] = 0 mg/kg, 6 h, tissue Plasma, dose level Control
[5] = 0 mg/kg, 9 h, dose level Control
[6] = 0 mg/kg, 9 h, tissue Plasma, dose level Control
[7] = 0 mg/kg, 24 h, dose level Control
[8] = 0 mg/kg, 24 h, tissue Plasma, dose level Control
[9] = 1 mg/kg, 3 h, dose level Middle
[10] = 1 mg/kg, 3 h, tissue Plasma, dose level Middle
[11] = 1 mg/kg, 6 h, dose level Middle
[12] = 1 mg/kg, 6 h, tissue Plasma, dose level Middle

CISPLATIN
TERMINAL_BW [1]: 217.6 g
Bas [1]: 0%
Eos [1]: 1%
Fbg [1]: 292.4 mg/dL
Ht [1]: 40.6%
Lym [1]: 82.4%
MCHC [1]: 32.6%
MCV [1]: 65.7 fL
Mono [1]: 2.2%
PT [1]: 15.3 s
Plat [1]: 125.7 x10_4/uL
RBC [1]: 617.8 x10_4/ul
Ret [1]: 6.8%
WBC [1]: 111 x10_2/uL
KIDNEY_L [1]: 1 g
KIDNEY_R [1]: 1 g
KIDNEY_TOTAL [1]: 1.9 g
ALP [2]: 1441.2 IU/L
ALT [2]: 48.4 IU/L
AST [2]: 80.6 IU/L
BUN [2]: 13.6 mg/dL
CRE [2]: 0.2 mg/dL
Ca [2]: 11 mg/dL
DBIL [2]: 0 mg/dL
IP [2]: 8.7 mg/dL
K [2]: 4.2 meq/L
LDH [2]: 188.6 IU/L
PL [2]: 126.6 mg/dL
RALB [2]: 2.9 g/dL
TBIL [2]: 0.02 mg/dL
TC [2]: 71 mg/dL
TG [2]: 54.8 mg/dL
TP [2]: 5.4 g/dL
gamma-GTP [2]: 2 IU/L
TERMINAL_BW [3]: 210.4 g
APTT [3]: 22.8 s
Bas [3]: 0%
Eos [3]: 1%
Fbg [3]: 275.4 mg/dL
Hb [3]: 13 g/dL
Ht [3]: 39.7%
Lym [3]: 83.4%
MCH [3]: 21.1 pg
MCHC [3]: 32.7%
MCV [3]: 64.3 fL
Mono [3]: 3%
Plat [3]: 115.2 x10_4/uL
RBC [3]: 617.6 x10_4/ul
Ret [3]: 6.5%
WBC [3]: 152.3 x10_2/uL
KIDNEY_L [3]: 0.9 g
KIDNEY_R [3]: 1 g
KIDNEY_TOTAL [3]: 1.9 g
LIVER [3]: 9.2 g
ALP [4]: 1766.6 IU/L
ALT [4]: 44 IU/L
AST [4]: 76.8 IU/L
BUN [4]: 12.6 mg/dL
CRE [4]: 0.2 mg/dL
DBIL [4]: 0 mg/dL
IP [4]: 9.5 mg/dL
K [4]: 4.5 meq/L
LDH [4]: 165.8 IU/L
Na [4]: 139.2 meq/L
PL [4]: 128.6 mg/dL
RALB [4]: 2.8 g/dL
TBIL [4]: 0 mg/dL
TC [4]: 67.2 mg/dL
TG [4]: 81.6 mg/dL
TP [4]: 5.2 g/dL
gamma-GTP [4]: 1.6 IU/L
TERMINAL_BW [5]: 208.8 g
APTT [5]: 24.1 s
Bas [5]: 0%
Eos [5]: 0.6%
Fbg [5]: 257.6 mg/dL
Hb [5]: 13 g/dL
Ht [5]: 39.9%
Lym [5]: 79.8%
MCHC [5]: 32.7%
MCV [5]: 64 fL
Mono [5]: 2.4%
Neu [5]: 16.4%
Plat [5]: 119.1 x10_4/uL
RBC [5]: 623 x10_4/ul
Ret [5]: 5.8%
WBC [5]: 90.6 x10_2/uL
KIDNEY_L [5]: 0.9 g
KIDNEY_R [5]: 1 g
KIDNEY_TOTAL [5]: 1.9 g
LIVER [5]: 8.9 g
ALP [6]: 1337.6 IU/L
ALT [6]: 39.8 IU/L
AST [6]: 74.2 IU/L
BUN [6]: 12.8 mg/dL
CRE [6]: 0.1 mg/dL
DBIL [6]: 0 mg/dL
GLC [6]: 184.8 mg/dL
K [6]: 4.2 meq/L
LDH [6]: 139.8 IU/L
Na [6]: 139.8 meq/L
PL [6]: 130.2 mg/dL
RALB [6]: 2.9 g/dL
TBIL [6]: 0.02 mg/dL
TP [6]: 5.4 g/dL
gamma-GTP [6]: 1.6 IU/L
TERMINAL_BW [7]: 232.1 g
APTT [7]: 22.3 s
Bas [7]: 0%
Eos [7]: 1%
Fbg [7]: 282.6 mg/dL
Ht [7]: 40.2%
Lym [7]: 81.2%
MCH [7]: 21.1 pg
MCV [7]: 65 fL
Mono [7]: 2.8%
Plat [7]: 123 x10_4/uL
RBC [7]: 617.6 x10_4/ul
Ret [7]: 6.3%
WBC [7]: 84 x10_2/uL
KIDNEY_L [7]: 1 g
KIDNEY_R [7]: 1.1 g
KIDNEY_TOTAL [7]: 2.1 g
ALP [8]: 1431.4 IU/L
ALT [8]: 47.4 IU/L
AST [8]: 74.8 IU/L
BUN [8]: 17.2 mg/dL
CRE [8]: 0.2 mg/dL
DBIL [8]: 0 mg/dL
IP [8]: 7.7 mg/dL
K [8]: 4.4 meq/L
LDH [8]: 177.8 IU/L
PL [8]: 150.4 mg/dL
RALB [8]: 3 g/dL
TBIL [8]: 0.014 mg/dL
TC [8]: 80.2 mg/dL
TG [8]: 98.4 mg/dL
TP [8]: 5.6 g/dL
gamma-GTP [8]: 1.6 IU/L
TERMINAL_BW [9]: 215.5 g
APTT [9]: 22.6 s
Bas [9]: 0%
Eos [9]: 1%
Fbg [9]: 275.8 mg/dL
Hb [9]: 12.7 g/dL
Ht [9]: 38.9%
Lym [9]: 75%
MCH [9]: 21.1 pg
MCHC [9]: 32.7%
MCV [9]: 64.5 fL
Mono [9]: 2.6%
Plat [9]: 127.7 x10_4/uL
RBC [9]: 602.2 x10_4/ul
Ret [9]: 6.6%
WBC [9]: 89.5 x10_2/uL
KIDNEY_L [9]: 1 g
KIDNEY_R [9]: 1 g
KIDNEY_TOTAL [9]: 2 g
LIVER [9]: 10 g
ALP [10]: 1623.4 IU/L
ALT [10]: 38.8 IU/L
BUN [10]: 13 mg/dL
CRE [10]: 0.2 mg/dL
DBIL [10]: 0 mg/dL
GLC [10]: 175.4 mg/dL
IP [10]: 8.9 mg/dL
K [10]: 4.2 meq/L
LDH [10]: 152.2 IU/L
Na [10]: 139.6 meq/L
PL [10]: 132.4 mg/dL
RALB [10]: 2.8 g/dL
TBIL [10]: 0.014 mg/dL
TC [10]: 75 mg/dL
TG [10]: 80.6 mg/dL
TP [10]: 5.2 g/dL
gamma-GTP [10]: 1.4 IU/L
TERMINAL_BW [11]: 216 g
APTT [11]: 22.5 s
Bas [11]: 0%
Eos [11]: 1%
Fbg [11]: 275 mg/dL
Hb [11]: 13 g/dL
Ht [11]: 39.9%
Lym [11]: 77%
MCHC [11]: 32.6%
MCV [11]: 63.4 fL
Mono [11]: 3%
Neu [11]: 17.8%
PT [11]: 15.4 s
Plat [11]: 128.4 x10_4/uL
RBC [11]: 629.4 x10_4/ul
Ret [11]: 6.1%
WBC [11]: 106.4 x10_2/uL
KIDNEY_L [11]: 1 g
KIDNEY_R [11]: 1 g
KIDNEY_TOTAL [11]: 2 g
LIVER [11]: 9.4 g
ALP [12]: 1530.2 IU/L
ALT [12]: 42.8 IU/L
AST [12]: 75.8 IU/L
CRE [12]: 0.1 mg/dL
DBIL [12]: 0 mg/dL
IP [12]: 9.6 mg/dL
K [12]: 4.4 meq/L
LDH [12]: 159.6 IU/L
Na [12]: 138.6 meq/L
PL [12]: 135.6 mg/dL
RALB [12]: 2.9 g/dL
TBIL [12]: 0 mg/dL
TC [12]: 73.2 mg/dL
TG [12]: 92.2 mg/dL
TP [12]: 5.4 g/dL
gamma-GTP [12]: 2 IU/L
